The values that follow come from patent publication US4241182A, “Fortimicin factors KG1, KG2 and KG3 and processes for production thereof” (Kyowa Hakko Kogyo Co., Ltd., priority 1978, dated 1980).

Converted amounts (≈) assume the structure as drawn. Like-named read-outs stand apart in the source and are kept apart here.

The subject of data set [1] is Gram-positive and Gram-negative bacteria. Kind of data set: Antibacterial spectrum (summary of Table 3). The format is cell-based. An excerpt: (§1) Table 3 illustrates the antibacterial spectra of Fortimicin factors KG1, KG2 and KG3 against various microorganisms.
(§2) (Minimum Inhibitory Concentration, μg/ml measured by
(§3) agar dilution method at pH 8.0)

For data set [2], the system named is Bacillus subtilis No. 10707. Kind of data set: Activity of isolated substance (units per mg), paper disc method. It is filed as cell-based. The method, then: After the completion of fermentation, the culture liquor is adjusted to pH 2.5 with concentrated sulfuric acid and is stirred for 30 minutes. Thereafter, about 7 kg of a filter aid, Radiolite No. 600 (product of Showa Kagaku Kogyo Co., Ltd., Japan) is added to the culture liquor and the microbial cells are removed by filtration. The filtrate is adjusted to pH 7.5 by the addition of 6 N sodium hydroxide, and then flowed through a column packed with about 20 l of a cation exchange resin, Amberlite IRC-50 (ammonium form). The active principles are adsorbed on the resin, and the effluent is discarded. After the resin is washed with water, elution of the active principles is carried out with 1 N aqueous ammonia. The eluate is subjected to determination of activity by a paper disc method using an agar plate of Bacillus subtilis No. 10707. Fractions showing an activity are combined and concentrated under reduced pressure to about 1 l. The concentrate is adjusted to pH 7 with concentrated hydrochloric acid and then flowed through a column packed with 3 l of Amberlite CG-50 (ammonium form). After the resin is washed with water, elution is carried out with 0.1 N NH4 OH containing 0.1 M NH4 Cl. The eluate is taken in 500 ml fractions. Each fraction is subjected to determination of antibacterial activity against Bacillus subtilis No. 10707 and identification of active component by silica gel thin layer chromatography [Developer: the lower layer of a mixed solvent of chloroform, methanol and concentrated aqueous ammonia (2:1:1 by volume), Coloring agent: ninhydrin]. After the volume of the eluate reaches about 3 l, Fortimicin factors KG1, KG2 and KG3 begin to be eluted. The fractions containing Fortimicin factors KG1, KG2 and KG3 are collected, concentrated under reduced pressure to remove ammonia, neutralized with concentrated hydrochloric acid and flowed through a column packed with 500 ml of Amberlite IRC-50 (ammonium form). After the resin is washed with water, elution is carried out with 0.5 N aqueous ammonia. The active fractions are collected, concentrated under reduced pressure and freeze-dried to obtain 2 g of a white powder. The powder contains in it 250 mg of Fortimicin KG1, 640 mg of Fortimicin KG2 and 330 mg of Fortimicin KG3.
2 g of the crude powder is placed on a silica gel column (Silica gel: produced by Wako Junyaku Co., Ltd., Japan, Diameter of column: about 3 cm). Development is carried out with the lower layer of a mixed solvent of chloroform, methanol and concentrated aqueous ammonia (3:1:1 by volume). The eluate is taken in 20 ml fractions. Each fraction is subjected to the silica gel thin layer chromatography. First, Fortimicin B is eluted and then Fortimicin factors KG2, KG1 and KG3 are eluted in this order. The fractions respectively containing Fortimicin factors KG1, KG2 and KG3 are collected, concentrated under reduced pressure and freeze-dried to obtain 200 mg of Fortimicin KG1, [Activity: 970 u/mg (u: unit)], 500 mg of Fortimicin KG2 (Activity: 970 u/mg) and 250 mg of Fortimicin KG3 (Activity: 950 u/mg) (Activity of each of the purified substances is considered to be 1000 u/mg).

Data set [3] is described as follows: Solubility of the free base. Conditions: for solubility in ethanol and acetone / solubility in methanol / solubility in organic solvents such as chloroform, benzene, ethyl acetate, butyl acetate, ethyl ether, butanol, petroleum ether, n-hexane / solubility in water: free base. It is filed as physicochemical.
The subject of a further data set is Escherichia coli KY8302. Kind of data set: Antibacterial spectrum, agar dilution method. It is filed as cell-based. Conditions: for MIC: Escherichia coli, KY8302, pH 8, Escherichia coli KY8302 (resistant to chloramphenicol, streptomycin, kanamycin, paromomycin, tetracycline and spectinomycin), read-out: Minimum Inhibitory Concentration.
From the text: as §1, §2, §3

Data set [4] deals with Proteus vulgaris ATCC 6897. Kind of data set: Antibacterial spectrum, agar dilution method. The format is cell-based.
From the text: as §1, §2, §3

Data set [5] relates to Staphylococcus aureus ATCC 6538P. Kind of data set: Antibacterial spectrum, agar dilution method. Conditions: for MIC: Staphylococcus aureus, ATCC6538P, pH 8, Staphylococcus aureus ATCC 6538P, read-out: Minimum Inhibitory Concentration. It is filed as cell-based.
From the text: as §1, §2, §3

A further data set relates to Escherichia coli KY8327. The data set can be described thus: Antibacterial spectrum, agar dilution method. The format is cell-based. Conditions: for MIC: Escherichia coli, KY8327, pH 8, Escherichia coli KY8327 (resistant to kanamycin, gentamicin and tobramycin), read-out: Minimum Inhibitory Concentration.
From the text: as §1, §2, §3

In a further data set the test system is Escherichia coli ATCC 26. Kind of data set: Antibacterial spectrum, agar dilution method. The format is cell-based.
From the text: as §1, §2, §3

Data set [6] concerns Pseudomonas aeruginosa BMH#1. Kind of data set: Antibacterial spectrum, agar dilution method. It is filed as cell-based.
From the text: as §1, §2, §3

A further data set deals with Escherichia coli KY8348. The data set can be described thus: Antibacterial spectrum, agar dilution method. It is filed as cell-based. Conditions: for Minimum Inhibitory Concentration: Escherichia coli KY8348 (resistant to streptomycin and gentamicin), pH 8.0.
From the text: as §1, §2, §3

Data set [7] in a line: Acute toxicity, intravenous administration in mice. Conditions: mouse, in vivo.
In data set [8] the test system is Klebsiella pneumoniae ATCC 10031. The data set can be described thus: Antibacterial spectrum, agar dilution method. The format is cell-based. Conditions: ATCC10031, pH 8.0, read-out: Minimum Inhibitory Concentration.
From the text: as §1, §2, §3

For data set [9], the system named is Shigella sonnei ATCC 9290. The data set can be described thus: Antibacterial spectrum, agar dilution method. It is filed as cell-based. Conditions: ATCC9290, pH 8.0, read-out: Minimum Inhibitory Concentration.
From the text: as §1, §2, §3

Data set [10] concerns Bacillus subtilis No. 10707. The data set can be described thus: Antibacterial spectrum, agar dilution method. It is filed as cell-based. Conditions: pH 8.0, read-out: Minimum Inhibitory Concentration.
From the text: as §1, §2, §3

In data set [11] the test system is Salmonella typhosa ATCC 9992. Kind of data set: Antibacterial spectrum, agar dilution method. The format is cell-based. Conditions: Salmonella enterica, pH 8, read-out: Minimum Inhibitory Concentration.
From the text: as §1, §2, §3

For data set [12], the system named is certain strains of Escherichia coli which are resistant to various antibiotics. Kind of data set: Antibacterial activity against resistant strains (summary of Table 3). The format is cell-based.
From the text: as §1, §2, §3

[13] abbreviates: after silica gel chromatography, pure substance considered 1000 u/mg.
Where [14] appears, read: Pseudomonas aeruginosa BMH#1, pH 8.0, read-out: Minimum Inhibitory Concentration.
Where [15] appears, read: ATCC6897, Proteus vulgaris ATCC 6897, pH 8.0, read-out: Minimum Inhibitory Concentration.

`CNC1C(O)C(OC2OC(C(C)N)=CCC2N)C(N)C(O)C1OC` (stereo not drawn) [Fortimicin KG1]: the “antibacterial activity / spectrum (in words)” value in [1] is “broad antibacterial spectrum”. Besides, the Activity in data set [2] (setting [13]) turned out to be 970 u/mg. In addition, the “solubility in ethanol and acetone” value in data set [3] was “slightly soluble”. Also, the solubility in methanol entry in [3] is listed as “soluble”. Moreover, the “solubility in organic solvents such as chloroform, benzene, ethyl acetate, butyl acetate, ethyl ether, butanol, petroleum ether, n-hexane” value (“solubility in organic solvents such” below) in [3] is “insoluble”. Further, the solubility in water entry in data set [3] was “readily soluble”. Besides, the “solubility in the ordinary organic solvents” value in [3] is reported as “poorly soluble”. For the same compound, the MIC with Escherichia coli KY8302 is 26.1 µg/mL (≈ 75.3 µM); in data set [4] (Proteus vulgaris, ATCC6897, pH 8, read-out: Minimum Inhibitory Concentration, Proteus vulgaris ATCC 6897) it was 26.1 µg/mL (≈ 75.3 µM); in data set [5], 13.1 µg/mL (≈ 37.8 µM); in the data set on Escherichia coli KY8327, 26.1 µg/mL (≈ 75.3 µM); in the data set on Escherichia coli ATCC 26 (Escherichia coli, ATCC26, pH 8, read-out: Minimum Inhibitory Concentration, Escherichia coli ATCC 26), 26.1 µg/mL (≈ 75.3 µM); in [6] (setting [14]), above 208 µg/mL. Moreover, the “Minimum Inhibitory Concentration” value in the data set on Escherichia coli KY8348 is 26.1 µg/mL.
Take `COC1C(O)C(N)C(OC2OC(C(C)N)=CCC2N)C(O)C1N(C)C(=O)CN` (stereo not drawn) [Fortimicin KG3]: the “antibacterial activity / spectrum (in words)” value in data set [1] was “strong antibacterial activity against a broad range of Gram-positive and Gram-negative bacteria”. This compound also registered an Activity in [2] (setting [13]) of 950 u/mg. The same compound registered a 50% lethal dose (LD50) in [7] of 225 mg/kg. In addition, in data set [3], the “solubility in ethanol and acetone” value is “slightly soluble”. Besides, in data set [3], the solubility in methanol entry was “soluble”. For the same compound, the “solubility in organic solvents such” value in [3] is recorded as “insoluble”. The solubility in water result in data set [3] is on record as “readily soluble”. The “solubility in the ordinary organic solvents” value in [3] was “poorly soluble”. In addition, the MIC in the data set on Escherichia coli KY8302 stood at 0.52 µg/mL (≈ 1.29 µM); in data set [4] (setting [15]), 0.66 µg/mL (≈ 1.64 µM); in [8], 0.18 µg/mL (≈ 0.446 µM); in data set [5] it was 0.083 µg/mL (≈ 0.206 µM); with Escherichia coli KY8327, 0.33 µg/mL (≈ 0.818 µM); in data set [9], 0.7 µg/mL (≈ 1.73 µM). Also, the MIC in data set [10] was below 0.045 µg/mL; in [11] it was 0.18 µg/mL (≈ 0.446 µM); in the data set with Escherichia coli ATCC 26 (ATCC26, Escherichia coli ATCC 26, pH 8.0, read-out: Minimum Inhibitory Concentration) it was 0.33 µg/mL (≈ 0.818 µM); in data set [6] (setting [14]), 5.2 µg/mL (≈ 12.9 µM); in the data set with Escherichia coli KY8348 (Escherichia coli, KY8348, pH 8, Escherichia coli KY8348 (resistant to streptomycin and gentamicin), read-out: Minimum Inhibitory Concentration) it was 10.4 µg/mL (≈ 25.8 µM). In addition, the “effectiveness against resistant Escherichia coli (in words)” value in data set [12] is “effective against certain strains of Escherichia coli which are resistant to various antibiotics”.
The compound `COC1C(O)C(N)C(OC2OC(C(C)N)=CCC2N)C(O)C1N(C)C(=O)CN` (stereo not drawn) [sulfate of Fortimicin KG3] yielded an Activity in [2] (sulfate, u: unit) of 650 u/mg.
With `CNC1C(O)C(OC2OC(C(C)N)=CCC2N)C(N)C(O)C1OC` (stereo not drawn) [sulfate of Fortimicin KG2], in data set [2] (sulfate, u: unit), the Activity was 620 u/mg.
As to `CNC1C(O)C(OC2OC(C(C)N)=CCC2N)C(N)C(O)C1OC` (stereo not drawn) [Fortimicin KG2], in data set [1], the “antibacterial activity / spectrum (in words)” value is “broad antibacterial spectrum”. In data set [2] (setting [13]), this compound registered an Activity of 970 u/mg. The “solubility in ethanol and acetone” value in data set [3] is reported as “slightly soluble”. Also, the solubility in methanol result in [3] is given as “soluble”. Moreover, in [3], the “solubility in organic solvents such” value is reported as “insoluble”. In addition, in [3], the solubility in water result is on record as “readily soluble”. For the same compound, in data set [3], the “solubility in the ordinary organic solvents” value is reported as “poorly soluble”. Further, the “Minimum Inhibitory Concentration” value in the data set on Escherichia coli KY8302 (Escherichia coli KY8302 (resistant to chloramphenicol, streptomycin, kanamycin, paromomycin, tetracycline and spectinomycin), pH 8.0) came to 41.7 µg/mL; in [5] (Staphylococcus aureus ATCC 6538P, pH 8.0), 10.5 µg/mL; with Escherichia coli KY8327 (Escherichia coli KY8327 (resistant to kanamycin, gentamicin and tobramycin), pH 8.0), 20.9 µg/mL; in the data set with Escherichia coli ATCC 26 (Escherichia coli ATCC 26, pH 8.0), 41.7 µg/mL; in the data set on Escherichia coli KY8348 it was 166.6 µg/mL. Also, the MIC is 83.3 µg/mL (≈ 240 µM) in [4] (setting [15]) and above 167 µg/mL in [6] (Pseudomonas aeruginosa, pH 8, read-out: Minimum Inhibitory Concentration, Pseudomonas aeruginosa BMH#1).
`CNC1C(O)C(OC2OC(C(C)N)=CCC2N)C(N)C(O)C1OC` (stereo not drawn) [sulfate of Fortimicin KG1]: the Activity in data set [2] (sulfate, u: unit) is listed as 620 u/mg.
